Legend:
Raji = test: Cytotoxicity against Raji cells assessed as cell viability at 32 nmol relative to control; assay type: functional, Homo sapiens
Human gammaherpesvirus 4 [1] = test: Inhibition of TPA-induced Epstein-Barr virus early antigen activation in Raji cells at 32 nmol relative to control; values are per cent of control
Human gammaherpesvirus 4 [2] = test: Inhibition of TPA-induced Epstein-Barr virus early antigen activation in Raji cells at 16 nmol relative to control; values are per cent of control
Human gammaherpesvirus 4 [3] = test: Inhibition of TPA-induced Epstein-Barr virus early antigen activation in Raji cells at 3.2 nmol relative to control; values are per cent of control
Human gammaherpesvirus 4 [4] = test: Inhibition of TPA-induced Epstein-Barr virus early antigen activation in Raji cells at 0.32 nmol relative to control; values are per cent of control

Cc1nc2cc(/N=C\c3c[nH]c4ccccc34)ccc2[nH]1
Activity (Raji): 60% | level, % of control (Human gammaherpesvirus 4 [1]): 18.4% | level, % of control (Human gammaherpesvirus 4 [2]): 62.1% | level, % of control (Human gammaherpesvirus 4 [3]): 86.1% | level, % of control (Human gammaherpesvirus 4 [4]): 100%

Cc1ccc(C2SCC(=O)N2c2ccc3[nH]c(C)nc3c2)cc1 (stereo not given)
Activity (Raji): 60% | level, % of control (Human gammaherpesvirus 4 [1]): 23.1% | level, % of control (Human gammaherpesvirus 4 [2]): 66.1% | level, % of control (Human gammaherpesvirus 4 [3]): 88.9% | level, % of control (Human gammaherpesvirus 4 [4]): 100%

Cc1nc2cc(N)ccc2[nH]1.Cl
Activity (Raji): 60% | level, % of control (Human gammaherpesvirus 4 [1]): 20.3% | level, % of control (Human gammaherpesvirus 4 [2]): 64.3% | level, % of control (Human gammaherpesvirus 4 [3]): 88.9% | level, % of control (Human gammaherpesvirus 4 [4]): 100%

Cc1nc2cc(/N=C3/SCC(=O)N3C)ccc2n1Cc1ccccc1
Activity (Raji): 60% | level, % of control (Human gammaherpesvirus 4 [1]): 20.7% | level, % of control (Human gammaherpesvirus 4 [2]): 61.2% | level, % of control (Human gammaherpesvirus 4 [3]): 83.4% | level, % of control (Human gammaherpesvirus 4 [4]): 100%

Cc1nc2cc(N3C(=O)CSC3c3ccc(C)o3)ccc2[nH]1 (stereo not given)
Activity (Raji): 60% | level, % of control (Human gammaherpesvirus 4 [1]): 20.9% | level, % of control (Human gammaherpesvirus 4 [2]): 65.1% | level, % of control (Human gammaherpesvirus 4 [3]): 87.7% | level, % of control (Human gammaherpesvirus 4 [4]): 100%

Cc1nc2cc(/N=C\c3cccs3)ccc2[nH]1
Activity (Raji): 60% | level, % of control (Human gammaherpesvirus 4 [1]): 22% | level, % of control (Human gammaherpesvirus 4 [2]): 65.5% | level, % of control (Human gammaherpesvirus 4 [3]): 89.1% | level, % of control (Human gammaherpesvirus 4 [4]): 100%

CNC(=S)Nc1ccc2c(c1)nc(C)n2Cc1ccccc1
Activity (Raji): 60% | level, % of control (Human gammaherpesvirus 4 [1]): 13.2% | level, % of control (Human gammaherpesvirus 4 [2]): 58.1% | level, % of control (Human gammaherpesvirus 4 [3]): 80% | level, % of control (Human gammaherpesvirus 4 [4]): 100%

Cc1nc2cc(/N=C\c3ccc(C)o3)ccc2[nH]1
Activity (Raji): 60% | level, % of control (Human gammaherpesvirus 4 [1]): 18% | level, % of control (Human gammaherpesvirus 4 [2]): 62% | level, % of control (Human gammaherpesvirus 4 [3]): 86.2% | level, % of control (Human gammaherpesvirus 4 [4]): 100%

Cc1nc2cc(/N=C3/SCC(=O)N3c3ccccc3)ccc2n1Cc1ccccc1
Activity (Raji): 60% | level, % of control (Human gammaherpesvirus 4 [1]): 19.4% | level, % of control (Human gammaherpesvirus 4 [2]): 61% | level, % of control (Human gammaherpesvirus 4 [3]): 82.5% | level, % of control (Human gammaherpesvirus 4 [4]): 100%

Cc1nc2cc(N3C(=O)CSC3c3cccs3)ccc2[nH]1 (stereo not given)
Activity (Raji): 60% | level, % of control (Human gammaherpesvirus 4 [1]): 22.1% | level, % of control (Human gammaherpesvirus 4 [2]): 66.5% | level, % of control (Human gammaherpesvirus 4 [3]): 88.9% | level, % of control (Human gammaherpesvirus 4 [4]): 100%

CCN1C(=O)CS/C1=N/c1ccc2c(c1)nc(C)n2Cc1ccccc1
Activity (Raji): 60% | level, % of control (Human gammaherpesvirus 4 [1]): 18.3% | level, % of control (Human gammaherpesvirus 4 [2]): 54.2% | level, % of control (Human gammaherpesvirus 4 [3]): 81.1% | level, % of control (Human gammaherpesvirus 4 [4]): 100%

CCNC(=S)Nc1ccc2c(c1)nc(C)n2Cc1ccccc1
Activity (Raji): 60% | level, % of control (Human gammaherpesvirus 4 [1]): 14% | level, % of control (Human gammaherpesvirus 4 [2]): 59.6% | level, % of control (Human gammaherpesvirus 4 [3]): 81.2% | level, % of control (Human gammaherpesvirus 4 [4]): 100%

Cc1nc2cc(/N=C\c3ccc4c(c3)OCO4)ccc2[nH]1
Activity (Raji): 60% | level, % of control (Human gammaherpesvirus 4 [1]): 15.1% | level, % of control (Human gammaherpesvirus 4 [2]): 60.2% | level, % of control (Human gammaherpesvirus 4 [3]): 85.4% | level, % of control (Human gammaherpesvirus 4 [4]): 100%

Cc1nc2cc(N3C(=O)CSC3c3c[nH]c4ccccc34)ccc2[nH]1 (stereo not given)
Activity (Raji): 60% | level, % of control (Human gammaherpesvirus 4 [1]): 21.8% | level, % of control (Human gammaherpesvirus 4 [2]): 65.9% | level, % of control (Human gammaherpesvirus 4 [3]): 87.1% | level, % of control (Human gammaherpesvirus 4 [4]): 100%

Cc1nc2cc(NC(=S)NC(=O)c3ccccc3)ccc2n1Cc1ccccc1
Activity (Raji): 60% | level, % of control (Human gammaherpesvirus 4 [1]): 17.8% | level, % of control (Human gammaherpesvirus 4 [2]): 60.6% | level, % of control (Human gammaherpesvirus 4 [3]): 82% | level, % of control (Human gammaherpesvirus 4 [4]): 100%

Cc1nc2cc(NC(=S)Nc3ccccc3)ccc2n1Cc1ccccc1
Activity (Raji): 60% | level, % of control (Human gammaherpesvirus 4 [1]): 15.3% | level, % of control (Human gammaherpesvirus 4 [2]): 60.2% | level, % of control (Human gammaherpesvirus 4 [3]): 83.1% | level, % of control (Human gammaherpesvirus 4 [4]): 100%

Cc1ccc(/C=N\c2ccc3[nH]c(C)nc3c2)cc1
Activity (Raji): 60% | level, % of control (Human gammaherpesvirus 4 [1]): 19.3% | level, % of control (Human gammaherpesvirus 4 [2]): 64.5% | level, % of control (Human gammaherpesvirus 4 [3]): 89.1% | level, % of control (Human gammaherpesvirus 4 [4]): 100%

Cc1nc2cc(N)ccc2n1Cc1ccccc1.Cl
Activity (Raji): 60% | level, % of control (Human gammaherpesvirus 4 [1]): 18.5% | level, % of control (Human gammaherpesvirus 4 [2]): 62.2% | level, % of control (Human gammaherpesvirus 4 [3]): 86.3% | level, % of control (Human gammaherpesvirus 4 [4]): 100%

COc1ccc(NC(=S)Nc2ccc3c(c2)nc(C)n3Cc2ccccc2)cc1
Activity (Raji): 60% | level, % of control (Human gammaherpesvirus 4 [1]): 13.5% | level, % of control (Human gammaherpesvirus 4 [2]): 53.1% | level, % of control (Human gammaherpesvirus 4 [3]): 78.3% | level, % of control (Human gammaherpesvirus 4 [4]): 100%

Cc1nc2cc(/N=C3/SCC(=O)N3C(=O)c3ccccc3)ccc2n1Cc1ccccc1
Activity (Raji): 60% | level, % of control (Human gammaherpesvirus 4 [1]): 12.3% | level, % of control (Human gammaherpesvirus 4 [2]): 52.5% | level, % of control (Human gammaherpesvirus 4 [3]): 82.5% | level, % of control (Human gammaherpesvirus 4 [4]): 100%

Cc1nc2cc([N+](=O)[O-])ccc2n1Cc1ccccc1
Activity (Raji): 60% | level, % of control (Human gammaherpesvirus 4 [1]): 18.3% | level, % of control (Human gammaherpesvirus 4 [2]): 62.4% | level, % of control (Human gammaherpesvirus 4 [3]): 87.4% | level, % of control (Human gammaherpesvirus 4 [4]): 100%

Cc1nc2cc(/N=C\c3cccc4ccccc34)ccc2[nH]1
Activity (Raji): 60% | level, % of control (Human gammaherpesvirus 4 [1]): 20.6% | level, % of control (Human gammaherpesvirus 4 [2]): 65.8% | level, % of control (Human gammaherpesvirus 4 [3]): 89.6% | level, % of control (Human gammaherpesvirus 4 [4]): 100%

Cc1nc2cc([N+](=O)[O-])ccc2[nH]1
Activity (Raji): 60% | level, % of control (Human gammaherpesvirus 4 [1]): 18.4% | level, % of control (Human gammaherpesvirus 4 [2]): 62.5% | level, % of control (Human gammaherpesvirus 4 [3]): 88% | level, % of control (Human gammaherpesvirus 4 [4]): 100%

Cc1nc2ccccc2[nH]1
Activity (Raji): 60% | level, % of control (Human gammaherpesvirus 4 [1]): 19.6% | level, % of control (Human gammaherpesvirus 4 [2]): 63.6% | level, % of control (Human gammaherpesvirus 4 [3]): 88.3% | level, % of control (Human gammaherpesvirus 4 [4]): 100%

COc1ccc(N2C(=O)CS/C2=N/c2ccc3c(c2)nc(C)n3Cc2ccccc2)cc1
Activity (Raji): 60% | level, % of control (Human gammaherpesvirus 4 [1]): 13.2% | level, % of control (Human gammaherpesvirus 4 [2]): 53% | level, % of control (Human gammaherpesvirus 4 [3]): 78% | level, % of control (Human gammaherpesvirus 4 [4]): 100%

Cc1nc2cc(N3C(=O)CSC3c3cccc4ccccc34)ccc2[nH]1 (stereo not given)
Activity (Raji): 60% | level, % of control (Human gammaherpesvirus 4 [1]): 17.1% | level, % of control (Human gammaherpesvirus 4 [2]): 61% | level, % of control (Human gammaherpesvirus 4 [3]): 85.1% | level, % of control (Human gammaherpesvirus 4 [4]): 100%

Cc1nc2cc(N3C(=O)CSC3c3ccc4c(c3)OCO4)ccc2[nH]1 (stereo not given)
Activity (Raji): 60% | level, % of control (Human gammaherpesvirus 4 [1]): 21.6% | level, % of control (Human gammaherpesvirus 4 [2]): 65% | level, % of control (Human gammaherpesvirus 4 [3]): 88.4% | level, % of control (Human gammaherpesvirus 4 [4]): 100%

— ChEMBL document CHEMBL1143757, “Synthesis and inhibitory activity of new benzimidazole derivatives against Burkitt's lymphoma promotion” (2007)
